Type in all cases: biochemical
One test deals with PKC theta kinase (Homo sapiens, UniProt Q04759). As to the kind of experiment: PKC theta kinase inhibition, coupled-enzyme (NADH absorbance) assay, Ki. The following applies: 240 μM ATP, 18 nM PKC theta kinase, 30° C. The procedure, abridged: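 Enzyme and compound equilibrated 10 min at 30 °C before reaction in HEPES pH 7.5 buffer with MgCl2, NaCl, EDTA and Brij. Activity tracked as NADH loss at 340 nm through a coupled system. Initial-rate data fitted by non-linear regression to give Ki.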
Chain of PKC theta kinase (Q04759 whole entry): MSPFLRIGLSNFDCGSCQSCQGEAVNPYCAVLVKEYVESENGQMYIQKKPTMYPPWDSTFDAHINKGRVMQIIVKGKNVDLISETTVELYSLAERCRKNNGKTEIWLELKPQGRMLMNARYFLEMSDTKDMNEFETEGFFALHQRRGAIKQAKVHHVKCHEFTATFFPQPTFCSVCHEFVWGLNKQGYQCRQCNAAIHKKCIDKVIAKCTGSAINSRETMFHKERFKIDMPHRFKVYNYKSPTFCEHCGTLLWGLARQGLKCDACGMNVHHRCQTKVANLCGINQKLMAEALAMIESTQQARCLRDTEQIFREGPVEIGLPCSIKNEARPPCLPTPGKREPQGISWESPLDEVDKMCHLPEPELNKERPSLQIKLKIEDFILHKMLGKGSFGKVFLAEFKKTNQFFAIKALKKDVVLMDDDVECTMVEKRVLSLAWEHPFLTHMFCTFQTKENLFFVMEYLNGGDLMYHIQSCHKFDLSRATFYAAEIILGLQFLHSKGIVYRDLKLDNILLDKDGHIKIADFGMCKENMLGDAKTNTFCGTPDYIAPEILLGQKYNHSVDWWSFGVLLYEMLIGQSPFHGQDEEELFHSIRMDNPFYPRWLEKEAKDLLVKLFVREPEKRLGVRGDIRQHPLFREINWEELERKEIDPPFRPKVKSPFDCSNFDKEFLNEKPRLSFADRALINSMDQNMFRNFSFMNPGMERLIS

For the next test, the target named is PKC delta kinase (Homo sapiens, UniProt Q05655). The test is described as follows: PKC delta kinase inhibition, coupled-enzyme (NADH absorbance) assay, Ki. The following applies: 150 μM ATP, 46 nM PKC delta kinase, 30° C.; read-out: Ki PKC delta. The procedure, abridged:
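Enzyme and compound pre-equilibrated 10 min at 30° C before adding ATP to 150 μM final. Buffer: HEPES pH 7.5 (100 mM), 10 mM MgCl2, 25 mM NaCl, 0.1 mM EDTA, 0.01% Brij.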

For another test, the target named is PKC alpha kinase (Homo sapiens, UniProt P17252). The test is described as follows: PKC alpha kinase inhibition, coupled-enzyme (NADH absorbance) assay, Ki. The settings on record: 130 μM ATP, 4.5 nM PKC alpha kinase, 30° C. An outline of the steps: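 Ki derived by non-linear regression of initial rates from a coupled assay tracking NADH absorbance at 340 nm over 15 min at 30 °C. ATP was 130 μM final after a 10 min compound–enzyme preincubation in HEPES pH 7.5 buffer with MgCl2, CaCl2, NaCl, EDTA and Brij.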

A value given as a limit tells only on which side of the number the result lay.

Chain of PKC delta kinase (Q05655 whole entry): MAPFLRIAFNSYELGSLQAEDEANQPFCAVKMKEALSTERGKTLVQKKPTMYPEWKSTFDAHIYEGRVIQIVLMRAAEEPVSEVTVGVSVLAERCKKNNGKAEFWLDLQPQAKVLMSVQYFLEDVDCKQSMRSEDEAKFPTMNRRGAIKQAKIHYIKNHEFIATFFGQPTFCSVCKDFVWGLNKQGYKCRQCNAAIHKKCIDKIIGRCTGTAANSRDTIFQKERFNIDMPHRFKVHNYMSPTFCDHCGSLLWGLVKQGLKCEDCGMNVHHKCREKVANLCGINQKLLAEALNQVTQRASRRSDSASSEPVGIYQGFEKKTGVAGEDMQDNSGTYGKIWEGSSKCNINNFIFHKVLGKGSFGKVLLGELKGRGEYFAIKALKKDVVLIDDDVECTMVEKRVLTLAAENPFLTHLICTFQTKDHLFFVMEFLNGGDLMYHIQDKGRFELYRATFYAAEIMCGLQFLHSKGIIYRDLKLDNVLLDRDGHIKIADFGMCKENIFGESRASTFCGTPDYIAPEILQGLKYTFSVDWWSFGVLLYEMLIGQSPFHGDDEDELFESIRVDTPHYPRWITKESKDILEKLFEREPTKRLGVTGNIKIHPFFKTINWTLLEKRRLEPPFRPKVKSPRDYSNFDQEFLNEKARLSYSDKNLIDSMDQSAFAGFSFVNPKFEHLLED

On to `CC(C)CC1CN(c2ccc(C(F)(F)F)c(-c3n[nH]c4ncccc34)n2)CCC1C#N` (stereo not drawn) [Compound 337], for which the Ki on PKC theta kinase was < 500 nM; at PKC delta kinase, > 1250 nM; on PKC alpha kinase it was > 1250 nM.

On to `CCC[C@H]1CN(c2ccc(F)c(-c3n[nH]c4ncccc34)n2)C[C@H]1N` [Compound 338], for which the Ki at PKC theta kinase is < 500 nM; on PKC delta kinase, > 1250 nM; at PKC alpha kinase, > 1250 nM.

As to `CCC[C@H]1CN(c2ccc(F)c(-c3n[nH]c4ncccc34)n2)C[C@@H]1N` [Compound 339], the Ki at PKC theta kinase was < 500 nM; at PKC delta kinase it was > 1250 nM; on PKC alpha kinase, > 1250 nM.

`CCC[C@H]1CN(c2ccc(C(F)(F)F)c(-c3n[nH]c4ncccc34)n2)C[C@H]1N` [Compound 340]: the Ki was > 700 nM on PKC theta kinase, > 1250 nM on PKC delta kinase and > 1250 nM on PKC alpha kinase.

Consider `CCC[C@H]1CN(c2ccc(C(F)(F)F)c(-c3n[nH]c4ncccc34)n2)C[C@@H]1N` [Compound 341], for which the Ki is > 700 nM at PKC theta kinase, > 1250 nM on PKC delta kinase and > 1250 nM at PKC alpha kinase.

As for `CC(C)C(C)(O)C1CN(c2cc(C(F)(F)F)cc(-c3n[nH]c4ncccc34)n2)CCN1` (stereo not drawn) [Compound 342], the Ki at PKC theta kinase was < 500 nM; on PKC delta kinase, > 1250 nM; on PKC alpha kinase it was > 1250 nM.

`NC1(C2CCCN(c3ccc(F)c(-c4n[nH]c5ncccc45)n3)C2)CCCC1` (stereo not drawn) [Compound 344]: the Ki on PKC theta kinase is < 50 nM; at PKC delta kinase it was < 500 nM; at PKC alpha kinase it was > 1250 nM.

For `CC(C)(F)C(N)C1CCCN(c2ccc(F)c(-c3n[nH]c4ncccc34)n2)C1` (stereo not drawn) [Compound 345], the Ki at PKC theta kinase is < 50 nM; on PKC delta kinase it was < 500 nM; on PKC alpha kinase, > 1250 nM.

For the compound `CC(C)C(N)C1CN(c2ccc(F)c(-c3n[nH]c4ncccc34)n2)CCO1` (stereo not drawn) [Compound 346], the Ki is < 50 nM at PKC theta kinase, < 2800 nM at PKC delta kinase and > 1250 nM on PKC alpha kinase.

Take `CC(C)C(N)C1CN(c2ccc(C(F)(F)F)c(-c3n[nH]c4ncccc34)n2)CCO1` (stereo not drawn) [Compound 348]: the Ki was < 500 nM at PKC theta kinase, > 1250 nM on PKC delta kinase and > 1250 nM on PKC alpha kinase.

Consider `CC(C)CC1CN(c2ccc(C(F)(F)F)c(-c3n[nH]c4ncccc34)n2)CCC1CN` (stereo not drawn) [Compound 350], for which the Ki on PKC theta kinase was < 50 nM; on PKC delta kinase it was > 1250 nM; on PKC alpha kinase it was > 1250 nM.

For the compound `CC(C)CC1(CN)CCCN(c2ccc(F)c(-c3n[nH]c4ncccc34)n2)C1` (stereo not drawn) [Compound 351], the Ki at PKC theta kinase was < 50 nM; on PKC delta kinase, < 2800 nM; at PKC alpha kinase, > 1250 nM.

Consider `CC(C)CC1(CN)CCCN(c2ccc(C(F)(F)F)c(-c3n[nH]c4ncccc34)n2)C1` (stereo not drawn) [Compound 352], for which the Ki on PKC theta kinase is < 500 nM; at PKC delta kinase it was < 2800 nM; at PKC alpha kinase, > 1250 nM.

Turning to `NC[C@@H]1CCN(c2ccc(C(F)(F)F)c(-c3n[nH]c4ncccc34)n2)C1` [Compound 353], the Ki is > 700 nM on PKC theta kinase, > 1250 nM at PKC delta kinase and > 1250 nM on PKC alpha kinase.

For the compound `NC[C@H]1CCN(c2ccc(C(F)(F)F)c(-c3n[nH]c4ncccc34)n2)C1` [Compound 354], the Ki on PKC theta kinase is > 700 nM; at PKC delta kinase, > 1250 nM; at PKC alpha kinase, > 1250 nM.

As for `NC[C@@H]1CCCN1c1ccc(F)c(-c2n[nH]c3ncccc23)n1` [Compound 355], the Ki was > 700 nM at PKC theta kinase, > 1250 nM at PKC delta kinase and > 1250 nM on PKC alpha kinase.

For `NC[C@@H]1CCCN1c1ccc(C(F)(F)F)c(-c2n[nH]c3ncccc23)n1` [Compound 356], the Ki at PKC theta kinase is > 700 nM; at PKC delta kinase, > 1250 nM; at PKC alpha kinase, > 1250 nM.

Take `NC[C@@H]1CCN(c2ccc(F)c(-c3n[nH]c4ncccc34)n2)C1` [Compound 357]: the results for the Ki at PKC theta kinase, at PKC delta kinase and at PKC alpha kinase were < 500 nM, > 1250 nM and > 1250 nM, respectively.

As for `FC(F)(F)c1ccc(N2CCC(Nc3ccccc3)CC2)nc1-c1n[nH]c2ncccc12` [Compound 358], the Ki on PKC theta kinase was > 700 nM; on PKC delta kinase it was > 1250 nM; on PKC alpha kinase it was > 1250 nM.

Turning to `CNC1CCN(c2ccc(C(F)(F)F)c(-c3n[nH]c4ncccc34)n2)CC1` [Compound 359], the Ki on PKC theta kinase was > 700 nM; on PKC delta kinase, > 1250 nM; at PKC alpha kinase, > 1250 nM.

As to `CC(C)(N)C1CCN(c2ccc(F)c(-c3n[nH]c4ncccc34)n2)C1` (stereo not drawn) [Compound 360], the Ki at PKC theta kinase is < 500 nM; on PKC delta kinase it was < 2800 nM; on PKC alpha kinase it was > 1250 nM.

For the compound `CC(C)(N)C1CCN(c2ccc(C(F)(F)F)c(-c3n[nH]c4ncccc34)n2)C1` (stereo not drawn) [Compound 361], the Ki is > 700 nM at PKC theta kinase, > 1250 nM at PKC delta kinase and > 1250 nM on PKC alpha kinase.

In the case of `NC[C@H]1CCN(c2ccc(F)c(-c3n[nH]c4ncccc34)n2)C1` [Compound 362], the Ki on PKC theta kinase is < 500 nM; on PKC delta kinase it was > 1250 nM; on PKC alpha kinase it was > 1250 nM.

For the compound `NCC1CN(c2ccc(C(F)(F)F)c(-c3n[nH]c4ncccc34)n2)C1` [Compound 363], the Ki was > 700 nM on PKC theta kinase, > 1250 nM on PKC delta kinase and > 1250 nM at PKC alpha kinase.

For the compound `CC(C)C[C@@H]1C[C@H](N)CN(c2ccc(C(F)(F)F)c(-c3n[nH]c4ncccc34)n2)C1` [Compound 364], the Ki is < 500 nM at PKC theta kinase, > 1250 nM at PKC delta kinase and > 1250 nM on PKC alpha kinase.

On to `CC(C)C[C@@H]1C[C@@H](N)CN(c2ccc(C(F)(F)F)c(-c3n[nH]c4ncccc34)n2)C1` [Compound 365], for which the Ki at PKC theta kinase was < 500 nM; at PKC delta kinase it was > 1250 nM; at PKC alpha kinase it was > 1250 nM.

Consider `CC(C)C[C@@H]1C[C@H](N)CN(c2ccc(F)c(-c3n[nH]c4ncccc34)n2)C1` [Compound 366], for which the Ki at PKC theta kinase was < 50 nM; on PKC delta kinase it was < 2800 nM; at PKC alpha kinase, > 1250 nM.

On to `CC(C)C[C@@H]1C[C@@H](N)CN(c2ccc(F)c(-c3n[nH]c4ncccc34)n2)C1` [Compound 367], for which the Ki at PKC theta kinase is < 50 nM; at PKC delta kinase, < 2800 nM; on PKC alpha kinase, > 1250 nM.

Take `NC1CCN(c2ccc(F)c(-c3n[nH]c4ncccc34)n2)CC1` [Compound 368]: the values for the Ki on PKC theta kinase, at PKC delta kinase and at PKC alpha kinase were < 500 nM, > 1250 nM and > 1250 nM, respectively.

On to `CNC1CCN(c2ccc(F)c(-c3n[nH]c4ncccc34)n2)CC1` [Compound 369], for which the Ki on PKC theta kinase was < 500 nM; at PKC delta kinase, > 1250 nM; on PKC alpha kinase, > 1250 nM.

As to `CC(C)CC1CN(c2ccc(F)c(-c3n[nH]c4ncccc34)n2)CCC1C#N` (stereo not drawn) [Compound 370], the Ki at PKC theta kinase is < 50 nM; on PKC delta kinase, < 2800 nM; at PKC alpha kinase, > 1250 nM.

`CS(=O)(=O)NCC1CCCN(c2ccc(F)c(-c3n[nH]c4ncccc34)n2)C1` (stereo not drawn) [Compound 371]: the figures for the Ki on PKC theta kinase, on PKC delta kinase and at PKC alpha kinase were > 700 nM, > 1250 nM and > 1250 nM, respectively.

As to `CS(=O)(=O)NCC1CCCN(c2ccc(C(F)(F)F)c(-c3n[nH]c4ncccc34)n2)C1` (stereo not drawn) [Compound 372], the Ki at PKC theta kinase was > 700 nM; on PKC delta kinase it was > 1250 nM; at PKC alpha kinase, > 1250 nM.

`CC(C)C(C)(O)C1CN(c2nc(-c3n[nH]c4ncccc34)ccc2F)CCN1` (stereo not drawn) [Compound 373]: the values for the Ki on PKC theta kinase, at PKC delta kinase and at PKC alpha kinase were < 1 nM, < 50 nM and < 500 nM, respectively.

In the case of `CC(C)C(C)(O)C1CN(c2nc(-c3n[nH]c4ncccc34)ccc2F)CCN1` (stereo not drawn) [Compound 374], the Ki at PKC theta kinase is < 50 nM; on PKC delta kinase it was < 500 nM; on PKC alpha kinase, > 1250 nM.

With `CC(C)C(C)(O)C1CN(c2nc(-c3n[nH]c4ncccc34)ccc2F)CCN1` (stereo not drawn) [Compound 375], the figures for the Ki at PKC theta kinase, at PKC delta kinase and on PKC alpha kinase were < 1 nM, < 50 nM and < 2800 nM, respectively.

Regarding `CC(C)C(C)(O)C1CN(c2nc(-c3n[nH]c4ncccc34)ccc2F)CCN1` (stereo not drawn) [Compound 376], the Ki at PKC theta kinase was < 50 nM; at PKC delta kinase it was < 500 nM; at PKC alpha kinase, > 1250 nM.

For the compound `CCC(N)(CC)C1CCCN(c2ccc(F)c(-c3n[nH]c4ncccc34)n2)C1` (stereo not drawn) [Compound 377], the Ki was < 500 nM at PKC theta kinase, < 2800 nM at PKC delta kinase and > 1250 nM on PKC alpha kinase.

Regarding `CCC(C)(C)C(N)C1CCCN(c2ccc(F)c(-c3n[nH]c4ncccc34)n2)C1` (stereo not drawn) [Compound 378], the values for the Ki at PKC theta kinase, at PKC delta kinase and on PKC alpha kinase were < 50 nM, < 500 nM and < 2800 nM, respectively.

On to `CCC(C)(C)C(N)C1CCCN(c2ccc(F)c(-c3n[nH]c4ncccc34)n2)C1` (stereo not drawn) [Compound 379], for which the Ki was < 500 nM at PKC theta kinase, > 1250 nM at PKC delta kinase and > 1250 nM on PKC alpha kinase.

Turning to `CC1(C)CC1(O)C1CN(c2ccc(F)c(-c3n[nH]c4ncccc34)n2)CCN1` (stereo not drawn) [Compound 380], the Ki at PKC theta kinase was < 50 nM; at PKC delta kinase, > 1250 nM; on PKC alpha kinase it was > 1250 nM.

As for `CC1(C)CC1(O)C1CN(c2ccc(F)c(-c3n[nH]c4ncccc34)n2)CCN1` (stereo not drawn) [Compound 381], the figures for the Ki on PKC theta kinase, at PKC delta kinase and on PKC alpha kinase were < 1 nM, < 500 nM and < 500 nM, respectively.

With `CC1(C)CC1(O)C1CN(c2ccc(F)c(-c3n[nH]c4ncccc34)n2)CCN1` (stereo not drawn) [Compound 382], the Ki at PKC theta kinase was < 500 nM; on PKC delta kinase, > 1250 nM; on PKC alpha kinase it was > 1250 nM.
